Assay results taken from patent US20150299188A1, “HETEROCYCLIC COMPOUND” (priority 2012, published 2015).

Test system: FLAP (5-lipoxygenase activating protein)
Assay: In vitro binding test: displacement of [3H]-7-chloro-3-(5-((3-fluoropyridin-2-yl)methoxy)-2-methylphenyl)-3,4-dihydroquinazolin-2(1H)-one from Sf9 microsome fractions
Parameters: species or system human and mouse
Conditions: Sf9 microsome fractions expressing FLAP; 100% = radioligand binding with 10 μM sodium 3-(3-(tert-butylsulfanyl)-1-(4-chlorobenzyl)-5-isopropyl-1H-indol-2-yl)-2,2-dimethylpropanoate, 0% = DMSO; test compound concentration not given
Procedure, shortened: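 Sf9 microsomes expressing human or mouse FLAP (2 μg/mL) preincubated with compound 10 min at room temperature, then 120 nM tritiated quinazolinone ligand added for 60 min; buffer 100 mM Tris-HCl pH 7.5 with NaCl, EDTA, DTT, glycerol, Tween20. Bound ligand filtered and counted by scintillation; 10 μM indole propanoate defines 100% inhibition, DMSO 0%.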

| Compound | inhibitory rate (%) |
| --- | --- |
| Cc1cc2c(cc1N1Cc3c(cc(-n4cncn4)nc3C3CC3)NC1=O)OC(c1ncccc1F)CC2 (centres unmarked) [Example 140, 5-cyclopropyl-3-(2-(3-fluoropyridin-2-yl)-6-methyl-3,4-dihydro-2H-chromen-7-yl)-7-(1H-1,2,4-triazol-1-yl)-3,4-dihydropyrido[4,3-d]pyrimidin-2(1H)-one] | 99% |
| O=C(O)CCCCc1ccc(OCc2ncccc2F)cc1N1Cc2ccccc2NC1=O [Example 251, 5-(4-((3-fluoropyridin-2-yl)methoxy)-2-(2-oxo-1,4-dihydroquinazolin-3(2H)-yl)phenyl)pentanoic acid] | 68% |
| Cc1ccc(OCc2ncccc2F)cc1N1Cc2cnccc2NC1=O [Example 268, 3-(5-((3-fluoropyridin-2-yl)methoxy)-2-methylphenyl)-3,4-dihydropyrido[4,3-d]pyrimidin-2(1H)-one] | 83% |
| Cn1cc(-c2cc3c(c(C4CC4)n2)CN(c2cc4c(cc2Cl)CCC(c2ncccc2F)O4)C(=O)N3)cn1 (centres unmarked) [Example 100, 3-(6-chloro-2-(3-fluoropyridin-2-yl)-3,4-dihydro-2H-chromen-7-yl)-5-cyclopropyl-7-(1-methyl-1H-pyrazol-4-yl)-3,4-dihydropyrido[4,3-d]pyrimidin-2(1H)-one] | 100% |
| CC(C)(O)c1ccc2c(c1)NC(=O)N(c1cc(OCc3c(F)cccc3F)ccc1CCc1ccccc1)C2 [Example 260, 3-(5-((2,6-difluorobenzyl)oxy)-2-(2-phenylethyl)phenyl)-7-(2-hydroxypropan-2-yl)-3,4-dihydroquinazolin-2(1H)-one] | 106% |
| O=C1Nc2ccccc2CN1c1cc(OCc2ncccc2F)ccc1Br [Example 212, 3-(2-bromo-5-((3-fluoropyridin-2-yl)methoxy)phenyl)-3,4-dihydroquinazolin-2(1H)-one] | 113% |
| O=C1Nc2ccnc(Cl)c2CN1c1ccc2c(c1)OC(c1ncccc1F)CC2 (centres unmarked) [Example 28, 5-chloro-3-(2-(3-fluoropyridin-2-yl)-3,4-dihydro-2H-chromen-7-yl)-3,4-dihydropyrido[4,3-d]pyrimidin-2(1H)-one] | 98% |
| CC(C)(O)CNC(=O)c1ccc(OCc2c(F)cccc2F)cc1N1Cc2ccccc2NC1=O [Example 190, 4-((2,6-difluorobenzyl)oxy)-N-(2-hydroxy-2-methylpropyl)-2-(2-oxo-1,4-dihydroquinazolin-3(2H)-yl)benzamide] | 55% |
| Cc1ccc(OCc2ncccc2F)cc1N1Cc2c(C#N)cccc2NC1=O [Example 298, 3-(5-((3-fluoropyridin-2-yl)methoxy)-2-methylphenyl)-2-oxo-1,2,3,4-tetrahydroquinazoline-5-carbonitrile] | 104% |
| COCc1ccc2c(c1)NC(=O)N(c1cc(OCc3c(F)cccc3F)ccc1C)C2 [Example 193, 3-(5-((2,6-difluorobenzyl)oxy)-2-methylphenyl)-7-(methoxymethyl)-3,4-dihydroquinazolin-2(1H)-one] | 97% |
| Cc1ccc(OCc2c(F)cccc2F)cc1N1Cc2ccncc2NC1=O [Example 240, 3-(5-((2,6-difluorobenzyl)oxy)-2-methylphenyl)-3,4-dihydropyrido[3,4-d]pyrimidin-2(1H)-one] | 76% |
| O=C1Nc2cc(CO)ccc2CN1c1cc(OCc2c(F)cccc2F)ccc1Cc1ccccn1 [Example 317, 3-(5-((2,6-difluorobenzyl)oxy)-2-(pyridin-2-ylmethyl)phenyl)-7-(hydroxymethyl)-3,4-dihydroquinazolin-2(1H)-one] | 54% |
| COC(=O)c1ccc2c(c1)NC(=O)N(c1cc(OCc3ccccn3)ccc1C)C2 [Example 232, methyl 3-(2-methyl-5-(pyridin-2-ylmethoxy)phenyl)-2-oxo-1,2,3,4-tetrahydroquinazoline-7-carboxylate] | 104% |
| CC(C)(O)c1nccc2c1CN(c1cc3c(cc1Cl)CCC(c1ncccc1F)O3)C(=O)N2 (centres unmarked) [Example 84, 3-(6-chloro-2-(3-fluoropyridin-2-yl)-3,4-dihydro-2H-chromen-7-yl)-5-(2-hydroxypropan-2-yl)-3,4-dihydropyrido[4,3-d]pyrimidin-2(1H)-one] | 106% |
| Cc1cc2c(cc1N1Cc3cc(Cl)cnc3NC1=O)OC(c1ncccc1F)CC2 (centres unmarked) [Example 48, 6-chloro-3-(2-(3-fluoropyridin-2-yl)-6-methyl-3,4-dihydro-2H-chromen-7-yl)-3,4-dihydropyrido[2,3-d]pyrimidin-2(1H)-one] | 105% |
| Cc1cc2c(cc1N1Cc3c(ccnc3-c3ncco3)NC1=O)OC(c1ncccc1F)CC2 (centres unmarked) [Example 46, 3-(2-(3-fluoropyridin-2-yl)-6-methyl-3,4-dihydro-2H-chromen-7-yl)-5-(1,3-oxazol-2-yl)-3,4-dihydropyrido[4,3-d]pyrimidin-2(1H)-one] | 104% |
| COC(=O)c1ccc2c(c1)NC(=O)N(c1cc(OCc3c(F)cccc3F)ccc1C(=O)OC)C2 [Example 176, methyl 3-(5-((2,6-difluorobenzyl)oxy)-2-(methoxycarbonyl)phenyl)-2-oxo-1,2,3,4-tetrahydroquinazoline-7-carboxylate] | 95% |
| Cc1cc2c(cc1N1Cc3c(cc(Oc4ccnn4C)nc3C3CC3)NC1=O)OC(c1ncccc1F)CC2 (centres unmarked) [Example 141, 5-cyclopropyl-3-(2-(3-fluoropyridin-2-yl)-6-methyl-3,4-dihydro-2H-chromen-7-yl)-7-((1-methyl-1H-pyrazol-5-yl)oxy)-3,4-dihydropyrido[4,3-d]pyrimidin-2(1H)-one] | 102% |
| O=C1Nc2cc(Cl)nc(C3CC3)c2CN1c1cc2c(cc1Cl)CCC(c1ncccc1F)O2 (centres unmarked) [Example 72, 7-chloro-3-(6-chloro-2-(3-fluoropyridin-2-yl)-3,4-dihydro-2H-chromen-7-yl)-5-cyclopropyl-3,4-dihydropyrido[4,3-d]pyrimidin-2(1H)-one] | 104% |
| Cc1cc2c(cc1N1Cc3cc(Cl)ncc3NC1=O)OC(c1ncccc1F)CC2 (centres unmarked) [Example 43, 6-chloro-3-(2-(3-fluoropyridin-2-yl)-6-methyl-3,4-dihydro-2H-chromen-7-yl)-3,4-dihydropyrido[3,4-d]pyrimidin-2 (1H)-one] | 107% |
| Cc1cc2c(cc1N1Cc3cn(CC(F)(F)F)c(=O)cc3NC1=O)OC(c1ncccc1F)CC2 (centres unmarked) [Example 38, 3-(2-(3-fluoropyridin-2-yl)-6-methyl-3,4-dihydro-2H-chromen-7-yl)-6-(2,2,2-trifluoroethyl)-4,6-dihydropyrido[4,3-d]pyrimidine-2,7(1H,3H)-dione] | 104% |
| Cc1cc2c(cc1N1Cc3c(ccnc3C(=O)NC3CC3)NC1=O)OC(c1ncccc1F)CC2 (centres unmarked) [Example 32, N-cyclopropyl-3-(2-(3-fluoropyridin-2-yl)-6-methyl-3,4-dihydro-2H-chromen-7-yl)-2-oxo-1,2,3,4-tetrahydropyrido[4,3-d]pyrimidine-5-carboxamide] | 101% |
| Cc1ccc(OCc2ncccc2F)cc1-n1c(=O)[nH]c2cccc(OCC3CC3)c2c1=O [Example 367, 5-(cyclopropylmethoxy)-3-(5-((3-fluoropyridin-2-yl)methoxy)-2-methylphenyl)quinazoline-2,4(1H,3H)-dione] | 100% |
